The test system of one test is HCV GT 1a replicon. Nature of the test: HCV replicon assay, stable GT 1a replicon (Renilla luciferase). It counts as cell-based. The conditions noted are these: Hepatitis C virus, GT1A; HCV GT 1a replicon, 72 h; read-out: EC50 1a. On the procedure: The activity of compounds was determined against HCV replicons representing genotypes (GT) 1a, 1b, 2a, and 3a. To generate stable Huh-7.5-based cell lines, HCV replicons were engineered to express the Renilla luciferase reporter (hRluc) fused to the neomycin phosphotransferase (Neo) gene. GT2a and GT3a HCV replicons were based on the JFH-1 subgenomic replicon (Kato et al. 2003 Gastroenterology, 125:1808-1817), in which the NS5A gene was replaced with that of strains J6 and S52 (GT2a and G3a, respectively). The activity of compounds against GT1a replicons encoding NS5A mutations (M28T, Q30R, L31M, Y93C, and Y93H) was also determined in a transient replication assay. The parental GT1a and GT2a replicons (pH/SG-Neo(L+I) and pSG-Neo-JFH1, respectively) were licensed from Apath LLC (Saint Louis, Mo.). The parental GT 1b replicon (pFKi389lucubineo_3_3′_ET) was licensed from ReBLikon GmbH (Germany). HCV replicons were constructed by standard molecular biology techniques described below. All replicon constructs were verified by restriction enzyme digestion and DNA sequencing.
pH/SG-Neo(L+I) was modified to add the firefly luciferase reporter gene and additional adaptive mutations by replacing the pH/SG-Neo(L+I) NS3-NS5A coding region with the corresponding sequence of pH77-S, creating pH/SG-lucubineo-H77S as described (Borawski J et al. 2009, J Virol 83: 10058-10074). Subsequently, the firefly luciferase-Neo cassette was replaced with the hRluc-Neo cassette. To create a unique cloning site, the NotI restriction site in NS5B was removed using QuickChange II XL Site-Directed Mutagenesis Kit (Agilent) and the following primers: NotI KO Fwd 5′-CTCAAACTCACTCCAATAGCTGCCGCTGGCCGGCTGGAC-3′(G→T mutation removing NotI site underlined) (SEQ. ID No. 1) and NotI KO Rev 5′-GTCCAGCGGGCCAGCGGCAGCTATTGGAGTGAGTTTGAG-3′(C→A mutation removing NotI site underlined) (SEQ. ID No. 2). The resulting vector, pH/SG-lucubineo-H775-NotIKO, was sequenced to confirm the NS5B gene. The hRluc-Neo cassette was PCR amplified from pF9 cytomegalovirus (CMV) hRluc-Neo Flexi(R) (Promega) using Accuprime Super Mix II (Invitrogen) and the following primers, which introduce restriction sites: […]
The amplification product was subcloned into pCR2.1-TOPO (Invitrogen). The resulting plasmid was digested with AscI and NotI, and the excised hRluc-Neo fragment was ligated using the Promega Rapid Ligation Kit (Promega) into pH/SG-lucubineo-H775-NotIKO digested with the same enzymes.
Stable HCV replicon cell lines were grown in complete media (Dulbecco's modified Eagle medium [DMEM], 2 mM L-glutamine, 0.1 mM essential amino acids, 1 mM sodium pyruvate, 10% heat inactivated fetal bovine serum) with the addition 500 μg/ml […] (G418). Huh7-lunet cells were maintained in the same medium without the addition of G418. Cells were routinely passaged at a dilution of 1:4 two times a week. The assay medium for both luciferase reporter HCV replicon and cytotoxicity assays used phenol red-free DMEM and lacked G418. For each stable replicon assay, a sixteen point half-log dilution series of compound was stamped (0.5 ul compound per well) into three replica 384-well plates, to which cells were added directly (4000 cells/well). For the transient replication assay, Huh7-lunet cells in ice-cold phosphate buffered saline (PBS) were electroporated (BioRad electroporator; 950 uF, 270V) with 10 ug purified in vitro transcribed HCV replicon RNA, followed by resuspension in complete media and plating (8000 cells/well) into compound stamped 384-well plates. Luciferase activity of compound-treated cells was measured relative to DMSO-treated cells after 72 h incubation using RENILLA-GLO™ Luciferase Assay (Promega). Cytotoxicity (CC50) in the GT1b replicon cell line was analyzed using CELL TITER-GLO™ (Promega). […]
Background: Replicon systems follow genome replication, usually without infectious particles.

The test system of test [1] is GT1a replicon encoding NS5A mutation Q30R. As to the kind of experiment: Transient replication assay, GT1a replicon with NS5A mutation Q30R. It counts as cell-based. The conditions noted are these: Hepatitis C virus, read-out: EC50 1a Q30R.

Molecules are shown by their SMILES.

For `COC(=O)N[C@H](C(=O)N1C[C@]2(CCCOC2)C[C@H]1c1ncc(-c2ccc3c(ccc4cc(-c5cnc([C@@H]6C[C@@H]7CCCC[C@@H]7N6C(=O)[C@@H](NC(=O)OC)C(C)C)[nH]5)ccc43)c2)[nH]1)C(C)C` [Compound 17], the results for the EC50 (in the test on HCV GT 1a replicon; in test [1]) were 0.012 nM and 0.01 nM, respectively.
For `COC(=O)N[C@H](C(=O)N1C[C@@]2(CCCCO2)C[C@H]1c1nc(-c2ccc(-c3ccc4c(ccc5nc([C@@H]6CCCN6C(=O)[C@@H](NC(=O)OC)C(C)C)[nH]c54)c3)cc2)c[nH]1)C(C)C` [Example 3], the values for the EC50 (in the test with HCV GT 1a replicon; in test [1]) were 0.146 nM and 5 nM, respectively.
Take `COC(=O)N[C@H](C(=O)N1CCC[C@H]1c1ncc(-c2ccc(-c3ccc4c(ccc5nc([C@@H]6C[C@@]7(CCCOC7)CN6C(=O)[C@@H](NC(=O)OC)C(C)C)[nH]c54)c3)cc2)[nH]1)C(C)C` [Compound 44]: the EC50 – broadly, the concentration that produces a half-maximal response – was determined as 0.01 nM with HCV GT 1a replicon and 0.1 nM in test [1].
In the case of `COC(=O)N[C@H](C(=O)N1CC2(CCOCC2)C[C@H]1c1ncc(-c2ccc(-c3ccc4c(ccc5nc([C@@H]6CCCN6C(=O)[C@@H](NC(=O)OC)C(C)C)[nH]c54)c3)cc2)[nH]1)C(C)C` [Example 83], the concentration for a half-maximal effect (EC50) with HCV GT 1a replicon amounted to 0.029 nM; in test [1], 1 nM.
Regarding `COC(=O)N[C@H](C(=O)N1C[C@]2(CCOC2)C[C@H]1c1ncc(-c2ccc(-c3ccc4c(ccc5nc([C@@H]6CCCN6C(=O)[C@@H](NC(=O)OC)C(C)C)[nH]c54)c3)cc2)[nH]1)C(C)C` [Compound 26], the half-maximal effective concentration (EC50) is 0.025 nM in the test with HCV GT 1a replicon and 0.8 nM in test [1].
Regarding `COC(=O)N[C@H](C(=O)N1C[C@]2(CCCOC2)C[C@H]1c1nc2ccc3cc(-c4ccc(-c5cnc([C@@H]6C[C@@H]7CCC[C@@H]7N6C(=O)[C@@H](NC(=O)OC)C(C)C)[nH]5)cc4)ccc3c2[nH]1)C(C)C` [Compound 10], the concentration for a half-maximal effect (EC50) in the test with HCV GT 1a replicon is 0.005 nM; in test [1] it was 0.02 nM.
As for `COC(=O)N[C@H](C(=O)N1C[C@]2(CCCOC2)C[C@H]1c1ncc(-c2ccc(-c3ccc4c(c3)CCCc3nc([C@@H]5C[C@@H]6CCCC[C@@H]6N5C(=O)[C@@H](NC(=O)OC)C(C)C)[nH]c3-4)cc2)[nH]1)C(C)C` [Compound 40], the figures for the EC50 (in the test on HCV GT 1a replicon; in test [1]) were 0.011 nM and 0.05 nM, respectively.
For the molecule `COC(=O)N[C@H](C(=O)N1C[C@]2(CCCOC2)C[C@H]1c1ncc(-c2ccc(-c3ccc4c(ccc5nc([C@@H]6C[C@H]7C[C@H]7N6C(=O)[C@@H](NC(=O)OC)C(C)C)[nH]c54)c3)cc2)[nH]1)C(C)C` [Compound 18], the EC50 in the test with HCV GT 1a replicon stood at 0.007 nM; in test [1], 0.05 nM.
Taken in the same sequence, the figures for `COC(=O)N[C@H](C(=O)N1C[C@]2(CCCOC2)C[C@H]1c1nc2ccc3cc(-c4ccc5c(ccc6nc([C@@H]7C[C@@]8(CCCOC8)CN7C(=O)[C@@H](NC(=O)OC)C(C)C)[nH]c65)c4)ccc3c2[nH]1)C(C)C` [Compound 31] were 0.03 nM and 0.02 nM.
Turning to `COC(=O)N[C@H](C(=O)N1C[C@]2(CCCOC2)C[C@H]1c1ncc(-c2ccc(-c3ccc(-c4cnc([C@@H]5C[C@@H]6CCCC[C@@H]6N5C(=O)[C@@H](NC(=O)OC)C(C)C)[nH]4)cc3)cc2)[nH]1)C(C)C` [Compound 32], the half-maximal effective concentration (EC50) is 0.007 nM in the test with HCV GT 1a replicon and 0.04 nM in test [1].
Consider `COC(=O)N[C@H](C(=O)N1C[C@]2(CCCCO2)C[C@H]1c1nc(-c2ccc(-c3ccc4c(ccc5nc([C@@H]6CCCN6C(=O)[C@@H](NC(=O)OC)C(C)C)[nH]c54)c3)cc2)c[nH]1)C(C)C` [Example 2], for which the EC50 in the test on HCV GT 1a replicon stood at 0.012 nM; in test [1], 0.03 nM.
Turning to `COC(=O)N[C@H](C(=O)N1C[C@]2(CCCOC2)C[C@H]1c1nc2ccc3cc(-c4ccc5c(ccc6nc([C@@H]7C[C@@H]8COC[C@@H]8N7C(=O)[C@@H](NC(=O)OC)C(C)C)[nH]c65)c4)ccc3c2[nH]1)C(C)C` [Compound 36], the values for the EC50 (with HCV GT 1a replicon; in test [1]) were 0.029 nM and 0.04 nM, respectively.
As to `COC(=O)N[C@H](C(=O)N1C[C@]2(CCCOC2)C[C@H]1c1ncc(-c2ccc(-c3ccc(-c4cnc([C@@H]5C[C@@H]6CCC[C@@H]6N5C(=O)[C@@H](NC(=O)OC)C(C)C)[nH]4)cc3)cc2)[nH]1)C(C)C` [Compound 37], the concentration for a half-maximal effect (EC50) in the test on HCV GT 1a replicon was determined as 0.008 nM; in test [1], 0.02 nM.
On to `COC(=O)N[C@H](C(=O)N1[C@H](c2nc3ccc4cc(-c5ccc(-c6cnc([C@@H]7C[C@@]8(CCCOC8)CN7C(=O)[C@@H](NC(=O)OC)C7C[C@@H](C)O[C@H](C)C7)[nH]6)cc5)ccc4c3[nH]2)C[C@@H]2CCCC[C@@H]21)C(C)C` (stereo in doubt) [Compound 38], for which the concentration giving a half-maximal response (EC50) in the test with HCV GT 1a replicon was found to be 0.008 nM; in test [1], 0.002 nM.
In the case of `COC(=O)N[C@H](C(=O)N1CCC[C@H]1c1nc2c([nH]1)-c1ccc(-c3ccc4c(ccc5nc([C@@H]6C[C@@]7(CCCOC7)CN6C(=O)[C@@H](NC(=O)OC)C(C)C)[nH]c54)c3)cc1OC2)C(C)C` [Compound 25], the EC50 was found to be 0.027 nM with HCV GT 1a replicon and 0.2 nM in test [1].
Taken in the same sequence, the figures for `COC(=O)N[C@H](C(=O)N1CC2(CC2)C[C@H]1c1nc2ccc3cc(-c4ccc5c(ccc6nc([C@@H]7C[C@@]8(CCCOC8)CN7C(=O)[C@@H](NC(=O)OC)C(C)C)[nH]c65)c4)ccc3c2[nH]1)C(C)C` [Compound 7] were 0.009 nM and 0.03 nM.
Consider `COC(=O)N[C@H](C(=O)N1C[C@]2(CCCOC2)C[C@H]1c1nc2ccc3cc(-c4ccc5c(ccc6nc([C@@H]7C[C@@H]8C[C@@H]8N7C(=O)[C@@H](NC(=O)OC)C(C)C)[nH]c65)c4)ccc3c2[nH]1)C(C)C` [Compound 21], for which the EC50 was determined as 0.02 nM in the test on HCV GT 1a replicon and 0.1 nM in test [1].
For `COC(=O)N[C@H](C(=O)N1C[C@]2(CCCOC2)C[C@H]1c1ncc(-c2ccc(-c3ccc4c(c3)OCc3nc([C@@H]5CCCN5C(=O)[C@@H](NC(=O)OC)C(C)C)[nH]c3-4)cc2)[nH]1)C(C)C` [Compound 30], the figures for the EC50 (in the test on HCV GT 1a replicon; in test [1]) were 0.05 nM and 0.1 nM, respectively.
For the molecule `COC(=O)N[C@H](C(=O)N1C[C@]2(CCCO2)C[C@H]1c1ncc(-c2ccc(-c3ccc4c(ccc5nc([C@@H]6CCCN6C(=O)[C@@H](NC(=O)OC)C(C)C)[nH]c54)c3)cc2)[nH]1)C(C)C` [Example 81], the concentration for a half-maximal effect (EC50) in the test with HCV GT 1a replicon was 0.015 nM; in test [1] it was 0.05 nM.
Taken in the same sequence, the figures for `COC(=O)N[C@H](C(=O)N1C[C@]2(CCCOC2)C[C@H]1c1ncc(-c2ccc(-c3ccc4c(ccc5nc([C@@H]6C[C@@H]7COC[C@@H]7N6C(=O)[C@@H](NC(=O)OC)C(C)C)[nH]c54)c3)cc2)[nH]1)C(C)C` [Compound 35] were 0.028 nM and 0.07 nM.
Turning to `COC(=O)N[C@H](C(=O)N1CCC[C@H]1c1ncc(-c2ccc(-c3ccc4c(ccc5nc([C@@H]6C[C@]7(CCOC7)CN6C(=O)[C@@H](NC(=O)OC)C(C)C)[nH]c54)c3)cc2)[nH]1)C(C)C` [Compound 51], the EC50 in the test with HCV GT 1a replicon was 0.011 nM; in test [1], 0.2 nM.
Take `COC(=O)N[C@H](C(=O)N1C[C@]2(CCCOC2)C[C@H]1c1nc2ccc3cc(-c4ccc(-c5cnc([C@@H]6C[C@@H]7C[C@@H]7N6C(=O)[C@@H](NC(=O)OC)C(C)C)[nH]5)cc4)ccc3c2[nH]1)C(C)C` [Compound 22]: the EC50 in the test on HCV GT 1a replicon was found to be 0.009 nM; in test [1], 0.1 nM.
As for `COC(=O)N[C@H](C(=O)N1C[C@@]2(CCOC2)C[C@H]1c1ncc(-c2ccc(-c3ccc4c(ccc5nc([C@@H]6C[C@]7(CCOC7)CN6C(=O)[C@@H](NC(=O)OC)C(C)C)[nH]c54)c3)cc2)[nH]1)C(C)C` [Compound 49], the values for the EC50 (in the test with HCV GT 1a replicon; in test [1]) were 0.01 nM and 0.2 nM, respectively.

Source of the values: patent US10407445B2, “Hepatitis C virus inhibitors” (ENANTA PHARMACEUTICALS, INC., priority 2013, dated 2019).
